Values quoted from earlier work, collected in patent US20260207540A1 (priority 2020, published 2026).

Experiments:
[1] = system: SRCR (scavenger receptor cysteine-rich) domain; details: proteins with calcium binding sites similar to host protease TMPRSS2
[2] = system: Rubella virus
[3] = inhalation challenge 0.25 to 10.0 mg/mL
[4] = 1 microgram/kg IV, canines

## O=C(O)CN(CCN(CC(=O)O)CC(=O)O)CC(=O)O [EDTA, ethylenediamine tetraacetic acid]
[1]
  calcium-dependent binding: disrupted
[2]; in the "test tube"
  Rubella virus infection: prevented
[2]; in vitro, addition of the calcium chelator
  Rubella fusion: completely abrogated
[3]
  bronchoconstriction: concentration-dependent bronchoconstriction

## albuterol sulfate
[4]
  EDTA-induced bronchoconstriction: significantly attenuated
